Experiments:
[1] = test system: Mouse experimental autoimmune encephalomyelitis (EAE); assay: Mouse experimental autoimmune encephalomyelitis (EAE) model for multiple sclerosis; assay type: in vivo, mouse (CSJLF-1); settings: scrambled control; for Peak Severity: score 0 to 5
[2] = test system: leukocyte trafficking into the central nervous system of EAE mice; assay: Reduction of leukocyte trafficking into the central nervous system of EAE mice (immunostaining of sections); assay type: in vivo, mouse (CSJLF1); settings: EAE experiment 4
Description: The pieces were embedded in O.C.T. tissue freezing medium (Ted Pella Inc., Redding, Calif.) on dry ice and methylbutane. Four-micron frozen sections were cut and air dried overnight. The sections were fixed for three minutes in ice-cold acetone and then placed on a Dako Autostainer (Dako Corporation, Carpinteria, Calif.) and treated in the following steps: 5 minutes in 0.03% H2 O2, 5 minutes in 5% donkey serum diluted in PBS, 45 minutes in appropriately diluted primary antibody, 30 minutes in horseradish peroxidase-labeled donkey anti-rat secondary antibody (Jackson Laboratory, Bar Harbor, Me.). Sections were rinsed between treatments with PBS. All the antibodies used were rat anti-mouse from PharMingen (San Diego, Calif.), except BM-8, which was from Bachem Bioscience Inc. (King of Prussia, Pa.). The immunostaining was developed with DAB (Dako Corporation) and counterstained with hematoxylin.

[3] = test system: C8161 human melanoma cells; assay: Experimental metastasis assay, C8161 cells injected into athymic nude mice; assay type: in vivo, human melanoma cells in athymic nude mice
Description: To evaluate the role of integrin α4 in metastasis, experimental metastasis assays are performed by injecting 1×10^5 C8161 cells into the lateral tail vein of athymic nude mice. C8161 is a human melanoma cell line. […] Four-week-old female athymic nude mice (Harlan Sprague Dawley) are used. Animals are maintained under the guidelines of the NIH. Groups of 4-8 mice each are tested in experimental metastasis assays.
Treatment of C8161 cells with antisense oligonucleotide ISIS 27104, complementary to human integrin α4, is performed in the presence of the cationic lipid, LIPOFECTIN (Gibco/BRL, Gaithersburg, Md.). Cells are seeded in 60 mm tissue culture dishes at 10^6 cells/ml and incubated at 37° C. for 3 days, washed with Opti-MEM (Gibco/BRL) 3 times and 100 μl of Opti-MEM medium is added to each well. 0.5 μM oligonucleotide and 15 μg/ml LIPOFECTIN are mixed at room temperature for 15 minutes. 25 μl of the oligonucleotide-LIPOFECTIN mixture is added to the appropriate dishes and incubated at 37° C. for 4 hours. […] After 4 hours, 500 U/ml TNF-α is added to the appropriate wells and incubated for 18 hours at which time cells are removed from the plates, counted and injected into athymic nude mice. […]
After 4 weeks, mice are sacrificed, organs are fixed in Bouin's fixative and metastatic lesions on lungs are scored with the aid of a dissecting microscope.

human integrin α4 [4] = assay: Integrin α4 protein expression in A375 cells after electroporation of oligonucleotide (flow cytometry); assay type: cell-based
Description: A375 cells were treated with ISIS 107245, 107248, 107252, 107255 and 107259 by electroporation at 175 volts, r=1, c=1000, 0.2 ml Opti-MEM, 1×10^6 cells /ml, 2 mm gap electrode using a BTX Electro Cell Manipulator 600 (Genetronics, San Diego Calif.). Oligonucleotide concentrations were 1, 3, 10 and 30 μM. Cells were harvested 24 hours after oligonucleotide treatment and strained with 2 ug/ml CD49d-FITC for flow cytometry as in the previous examples.
ISIS 107248 was compared directly to ISIS 27104 for ability to inhibit integrin α4 expression in A375 melanoma cells. Oligonucleotides were electroporated into cells as in the previous example.

human integrin α4 [5] = assay: Inhibition of human integrin α4 protein levels by antisense oligonucleotides (LIPOFECTIN, flow cytometry with CD49d-FITC) in A375 melanoma cells; assay type: cell-based; set-up: % Inhib.: tested at 200 nM
[6] = test system: Mouse collagen-induced arthritis (CIA); assay: Mouse collagen-induced arthritis (CIA) model for rheumatoid arthritis; assay type: in vivo, mouse (DBA/1LacJ); settings: Table 22; positive control, 5 mg/kg daily IP
Text: A model for human rheumatoid arthritis has been developed wherein mice are immunized with bovine type II collagen. Anderson et al., J. Immunol. 1991 147, 1189-1193, citing Trentham et al., J. Exp. Med 1977, 146, 857. Swelling and inflammation of the joints follows in approximately 3 weeks, with joint distortion and ankylosis typical of rheumatoid arthritis. This model has been used to study the effects of the antisense oligonucleotide 17044, targeted to mouse integrin α4, on arthritis in mice.
DBA/1LacJ mice were obtained from Jackson Laboratory, Bar Harbor, Me. Female mice aged 6 to 8 weeks were used and assigned to groups, ten mice per group. On day 0 mice were immunized at the base of the tail with 100 ug of bovine type II collagen which was emulsified in Complete Freund's Adjuvant (CFA). On day 7, a second booster dose of collagen was administered by the same route. On day 14 the mice were injected subcutaneously with 100 ug of lipopolysaccharide (LPS). Weights were recorded weekly. Mice were inspected daily for the onset of CIA, which is characterized by erythema and edema. Upon the onset of the disease, paw widths and rear ankle widths of affected and unaffected joints were measured three times a week using a constant tension caliper. In addition, limbs were clinically evaluated and graded 0-4, where 0=normal; 1=one digit swollen; 2=inflammation present in more than one digit; 3=joint distortion with or without inflammation; and 4=ankylosis, detected by joint manipulation. The progression of all measurements was recorded to day 50. At the end of the observation period for each mouse, all paws were removed and examined histologically.
The oligonucleotide, the positive control drug (cyclophosphamide, 5 mg/kg), and the vehicle were administered daily to each mouse intraperitoneally (IP) starting on day -3 and continuing for the duration of the study. Each animal received 10 mg/kg as a bolus daily dose.
In a preliminary study, a single 10 mg/kg daily dose of […] was administered from the time of disease induction to the conclusion of the study 50 days later. Arthritis incidence was reduced from 70 to 30% in the ISIS 17044-treated group.

leukocyte migration = settings: 3 mg/kg oral; 24 hours after implantation; cited from earlier work
[7] = test system: dextran sulfate-mediated colitis in mice; settings: cited from earlier work
[8] = Table 24, A375 cells, lipofectin, as Example 8

With “17614 (GCCGACACCCGTTCGTTCGG; phosphorothioate, 2'-MOE/deoxy, further chemistry not given here) [compound 17614]” the “Days to Onset” value ([1]; EAE Experiment 3, 1 mg/kg) was 16.86 days, the “Disease Incidence” value ([1]; EAE Experiment 3, 1 mg/kg) was 7/7 and the “Peak Severity” value ([1]; EAE Experiment 3, 1 mg/kg) was 2.14. For the same compound, the “Days to Onset” value ([1]; EAE Experiment 4, 2 mg/kg SC) was 14.14 days, the “Disease Incidence” value ([1]; EAE Experiment 4, 2 mg/kg SC) was 7/7 and the “Peak Severity” value ([1]; EAE Experiment 4, 2 mg/kg SC) was 1.86. For the same compound, the “Days to Onset” value ([1]; EAE Experiment 5, 2 mg/kg SC) was 9 days, the “Disease Incidence” value ([1]; EAE Experiment 5, 2 mg/kg SC) was 6/7 and the “Peak Severity” value ([1]; EAE Experiment 5, 2 mg/kg SC) was 1.71. For the same compound, the “reduction of cellular influx, scrambled control” value [2] was “not effective in reducing cellular influx”.

In the case of “27104 (CCCAAGCCATGCGCTCTCGG; phosphorothioate, 2'-MOE, 5-methyl-C, further chemistry not given here) [compound 27104]”, the “enhanced metastatic ability of C8161 from TNF-α treatment” value ([3]; TNF-α treated cells) is reported as “eliminates the enhanced metastatic ability”, the “metastatic potential of C8161 cells” value ([3]; cells treated with oligonucleotide before injection) is reported as “decreases the metastatic potential” and the “% Control” value (human integrin α4 [4]; Table 25, 1 nM as printed, 24 hours) is reported as 86.2%. The “% Control” value (human integrin α4 [4]; Table 25, 10 nM, 24 hours) was 63.2%, the “% Control” value (human integrin α4 [4]; Table 25, 30 nM, 24 hours) was 35.3% and the “% Control” value (human integrin α4 [4]; Table 26, 1 μM) was 86.2%. For the same compound, the “% Inhib.” value (human integrin α4 [4]; Table 26, 1 μM) was 13.8%, the “% Control” value (human integrin α4 [4]; Table 26, 3 μM) was 63.2% and the “% Inhib.” value (human integrin α4 [4]; Table 26, 3 μM) was 36.8%. For the same compound, the “% Control” value (human integrin α4 [4]; Table 26, 10 μM) was 35.3%, the “% Inhib.” value (human integrin α4 [4]; Table 26, 10 μM) was 64.7% and the “% Control” value (human integrin α4 [4]; Table 26, 30 μM) was 27.1%. The “% Inhib.” value (human integrin α4 [4]; Table 26, 30 μM) was 72.9%, the “inhibition (Example 10)” value (human integrin α4 [5]; Example 10 assay, dose not stated) was no less than 40% and the “inhibition (Example 11)” value (human integrin α4 [5]; Example 11 assay, dose not stated) was no less than 40%. For the same compound, the “% Control” value (human integrin α4 [5]; Table 4, 10 nM) was 69%, the “% Inhib.” value (human integrin α4 [5]; Table 4, 10 nM) was 31% and the “% Control” value (human integrin α4 [5]; Table 4, 30 nM) was 64%. For the same compound, the “% Inhib.” value (human integrin α4 [5]; Table 4, 30 nM) was 36%, the “% Control” value (human integrin α4 [5]; Table 4, 100 nM) was 49% and the “% Inhib.” value (human integrin α4 [5]; Table 4, 100 nM) was 51%. The “% Control” value (human integrin α4 [5]; Table 4, 300 nM) was 39%, the “% Inhib.” value (human integrin α4 [5]; Table 4, 300 nM (highest dose)) was 61% and the “% Control” value (human integrin α4 [5]; Table 6, 10 nM) was 84%. For the same compound, the “% Inhib.” value (human integrin α4 [5]; Table 6, 10 nM) was 16%, the “% Control” value (human integrin α4 [5]; Table 6, 30 nM) was 82% and the “% Inhib.” value (human integrin α4 [5]; Table 6, 30 nM) was 18%. For the same compound, the “% Control” value (human integrin α4 [5]; Table 6, 100 nM) was 59%, the “% Inhib.” value (human integrin α4 [5]; Table 6, 100 nM) was 41% and the “% Control” value (human integrin α4 [5]; Table 6, 300 nM) was 37%. For the same compound, the “% Inhib.” value (human integrin α4 [5]; Table 6, 300 nM (highest dose)) was 63%, the “% Control” value (human integrin α4 [5]; [8]) was 69% and the “% Inhib.” value (human integrin α4 [5]; [8]) was 31%.

In the case of `O=P1(N(CCCl)CCCl)NCCCO1` (centres unmarked) [Cyclophosphamide, cyclophosphamide, reference compound], the “# Paws/Mouse (mean number of affected paws at termination)” value [6] is reported as 0 ± 0 and the “Severity (total clinical score/total number of mice in group)” value [6] is reported as 0 ± 0.

For `COc1ccc2c(c1)c(CC(=O)O)c(C)n2C(=O)c1ccc(Cl)cc1` [Indomethacin], the “reduction in mean leukocyte count compared to vehicle control” value (leukocyte migration) is listed as 75-80%.

In the case of TGF-β, the “dextran sulfate-mediated colitis” value [7] is given as “protect against dextran sulfate-mediated colitis in mice”.
